Data as given in patent US20250051347A1, “BIFUNCTIONAL CHIMERIC HETEROCYCLIC COMPOUND AND USE THEREOF AS ANDROGEN RECEPTOR DEGRADER” (Hinova Pharmaceuticals, Inc., priority 2021, published 2025).

Biological target: T1, androgen receptor (AR) splicing variant AR-v7 (Homo sapiens, UniProt P10275)
T1 construct: The degradation activity of compounds on AR-v7 in 22RV1 cells; host or cells: 22RV1 cells
T1 sequence (P10275 1-644 isoform P10275-3): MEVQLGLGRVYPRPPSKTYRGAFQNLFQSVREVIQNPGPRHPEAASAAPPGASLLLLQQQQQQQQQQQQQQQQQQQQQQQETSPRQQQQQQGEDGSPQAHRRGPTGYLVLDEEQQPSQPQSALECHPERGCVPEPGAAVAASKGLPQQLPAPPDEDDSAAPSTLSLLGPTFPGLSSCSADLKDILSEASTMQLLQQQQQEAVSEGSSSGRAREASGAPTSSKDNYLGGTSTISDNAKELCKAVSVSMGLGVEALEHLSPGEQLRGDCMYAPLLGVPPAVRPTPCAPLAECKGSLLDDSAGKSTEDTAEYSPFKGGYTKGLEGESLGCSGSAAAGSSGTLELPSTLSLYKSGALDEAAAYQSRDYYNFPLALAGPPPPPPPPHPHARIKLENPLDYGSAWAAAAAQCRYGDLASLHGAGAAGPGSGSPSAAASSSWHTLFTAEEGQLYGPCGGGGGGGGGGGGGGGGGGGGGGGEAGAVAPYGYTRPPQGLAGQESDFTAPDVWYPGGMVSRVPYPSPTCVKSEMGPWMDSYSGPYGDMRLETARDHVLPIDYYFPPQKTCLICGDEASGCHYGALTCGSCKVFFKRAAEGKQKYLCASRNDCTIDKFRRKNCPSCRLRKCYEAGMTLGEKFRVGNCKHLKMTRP
Test: Degradation activity on androgen receptor splicing variant AR-v7 in 22RV1 cells (ELISA)
Format: cell-based
Details: AR-v7 degradation in 22RV1 cells, 48 h, class symbols

| SMILES | DC50 [nM] |
| --- | --- |
| CC(C)(c1ccc(Oc2nc(N3CC4(COC4)C3)ncc2F)cc1)c1ccc(O[C@H]2C[C@@H](Nc3ccc4c(c3)C(=O)N(C3CCC(=O)NC3=O)C4=O)C2)cc1 (some centres unmarked) [Example 158] | 11 to 100 |
| CC(C)(c1ccc(OCCCCOCCCCNc2ccc3c(c2)C(=O)N(C2CCC(=O)NC2=O)C3=O)cc1)c1ccc(OCc2ccnc(NS(C)(=O)=O)n2)cc1 (centres unmarked) [Example 54, N-(4-((4-(2-(4-(4-(4-((2-(2,6-dioxopiperidin-3-yl)-1,3-dioxoisoindolin-5-yl)amino)butoxy)butoxy)phenyl)isopropan-2-yl)phenoxy)methyl)pyrimidin-2-yl)methanesulfonamide] | 101 to 1000 |
| Cc1nnc(-c2ccc(Oc3ccc(C(C)(C)c4ccc(O[C@H]5C[C@@H](Nc6ccc7c(=O)n(C8CCC(=O)NC8=O)cnc7c6)C5)cc4)cc3)cn2)o1 (some centres unmarked) [Example 120] | 11 to 100 |
| CN(C)C(=O)c1noc(COc2ccc(C(C)(C)c3ccc(OCCCNc4ccc5c(c4)C(=O)N(C4CCC(=O)NC4=O)C5=O)cc3)cc2)n1 (centres unmarked) [Example 180, 5-((4-(2-(4-(3-((2-(2,6-dioxopiperidin-3-yl)-1,3-dioxoisoindolin-5-yl)amino)propoxy)phenyl)propan-2-yl)phenoxy)methyl)-N,N-dimethyl-1,2,4-oxadiazol-3-carbonylamine] | 1000 to 5000 |
| CC(C)(c1ccc(OCCCNc2ccc3c(c2)C(=O)N(C2CCC(=O)NC2=O)C3=O)cc1)c1ccc(OCc2ccnc(NS(C)(=O)=O)n2)cc1 (centres unmarked) [Example 37, N-(4-((4-(2-(4-(3-((2-(2,6-dioxopiperidin-3-yl)-1,3-dioxoisoindolin-5-yl)amino)propoxy)phenyl)propan-2-yl)phenoxy)methyl)pyrimidin-2-yl)methanesulfonamide] | 1000 to 5000 |
| CC(C)(c1ccc(OCCCCCCCOCCN2CCN(c3ccc4c(c3)C(=O)N(C3CCC(=O)NC3=O)C4=O)CC2)cc1)c1ccc(OCc2ccnc(NS(C)(=O)=O)n2)cc1 (centres unmarked) [Example 2, N-(4-((4-(2-(4-((7-(2-(4-(2-(2,6-dioxopiperidin-3-yl)-1,3-dioxoisoindolin-5-yl)piperazin-1-yl)ethoxy)heptyl)oxy)phenyl)propan-2-yl)phenoxy)methyl)pyrimidin-2-yl)methanesulfonamide] | 101 to 1000 |
| Cc1nc(-c2ncc(Oc3ccc(C(C)(C)c4ccc(N5CCC56CN(c5ccc7c(c5)C(=O)N(C5CCC(=O)NC5=O)C7=O)C6)cc4)cc3)cn2)no1 (centres unmarked) [Example 179, 2-(2,6-dioxopiperidin-3-yl)-5-(1-(4-(2-(4-((2-(5-methyl-1,2,4-oxadiazol-3-yl)pyrimidin-5-yl)oxy)phenyl)propan-2-yl)phenyl)-1,6-diazaspiro[3.3]heptan-6-yl)isoindolin-1,3-dione] | 101 to 1000 |
| CC(=O)c1nccc(COc2ccc(C(C)(C)c3ccc(OC[C@H]4CC[C@H](Nc5ccc6c(c5)C(=O)N(C5CCC(=O)NC5=O)C6=O)CC4)cc3)cc2)n1 (some centres unmarked) [Example 146] | 1000 to 5000 |
| CC(C)(c1ccc(OCCCNc2cccc3c2C(=O)N(C2CCC(=O)NC2=O)C3=O)cc1)c1ccc(OCc2ccnc(N3CCOCC3)n2)cc1 (centres unmarked) [Example 59] | 11 to 100 |

Other lines, results leading:

| DC50 [nM] | SMILES |
| --- | --- |
| 11 to 100 | C[C@@H]1CN(C)[C@@H](C)CN1c1nccc(COc2ccc(C(C)(C)c3ccc(O[C@H]4C[C@@H](Nc5ccc6c(c5)C(=O)N(C5CCC(=O)NC5=O)C6=O)C4)cc3)cc2)n1 (some centres unmarked) [Example 412] |
| 1000 to 5000 | CC(C)(c1ccc(OCCC#Cc2ccc3c(c2)C(=O)N(C2CCC(=O)NC2=O)C3=O)cc1)c1ccc(OCc2ccnc(N3CC4(COC4)C3)n2)cc1 (centres unmarked) [Example 497] |
| 101 to 1000 | CC(C)(c1ccc(OCCCNc2cccc3c2C(=O)N(C2CCC(=O)NC2=O)C3=O)cc1)c1ccc(OCc2ccnc(N3CCCCC3)n2)cc1 (centres unmarked) [Example 555] |
| 11 to 100 | C[C@@H]1CN(c2nccc(COc3ccc(C(C)(C)c4ccc(O[C@H]5C[C@@H](Nc6ccc7c(c6)C(=O)N(C6CCC(=O)NC6=O)C7=O)C5)cc4)cc3)n2)[C@H](C)CN1C (some centres unmarked) [Example 409] |
| 1000 to 5000 | CC(=O)c1nccc(COc2ccc(C(C)(C)c3ccc(N4CCC5(CCN(c6ccc7c(c6)C(=O)N(C6CCC(=O)NC6=O)C7=O)C5)C4)cc3)cc2)n1 (centres unmarked) [Example 560] |
| 11 to 100 | CC(C)(c1ccc(OCc2ccnc(-c3cc[nH]n3)n2)cc1)c1ccc(O[C@H]2C[C@@H](Nc3ccc4c(c3)C(=O)N(C3CCC(=O)NC3=O)C4=O)C2)cc1 (some centres unmarked) [Example 274] |
| 101 to 1000 | CC(=O)c1nccc(COc2ccc(C(C)(C)c3ccc(OC4CCN(c5ccc6c(c5)C(=O)N(C5CCC(=O)NC5=O)C6=O)C4)cc3)cc2)n1 (centres unmarked) [Example 486] |
| 11 to 100 | CC(C)(c1ccc(Oc2ccnc(-n3nccn3)n2)cc1)c1ccc(O[C@H]2C[C@H](Nc3ccc4c(c3)C(=O)N(C3CCC(=O)NC3=O)C4=O)C2)cc1 (some centres unmarked) [Example 469, 5-(((1r,3r)-3-(4-(2-(4-((2-(2H-1,2,3-triazol-2-yl)pyrimidin-4-yl)oxy)phenyl)propan-2-yl)phenoxy)cyclobutyl)amino)-2-(2,6-dioxopiperidin-3-yl)isoindolin-1,3-dione] |
| 11 to 100 | CN(C)C1CCCN(c2nccc(COc3ccc(C(C)(C)c4ccc(O[C@H]5C[C@@H](Nc6ccc7c(c6)C(=O)N(C6CCC(=O)NC6=O)C7=O)C5)cc4)cc3)n2)C1 (some centres unmarked) [Example 404] |
| 11 to 100 | CC(C)(c1ccc(Oc2nc(N3CC4(COC4)C3)ncc2F)cc1)c1ccc(O[C@H]2C[C@H](Nc3ccc4c(c3)C(=O)N(C3CCC(=O)NC3=O)C4=O)C2)cc1 (some centres unmarked) [Example 247] |
| 11 to 100 | CC(C)(c1ccc(Oc2cnc(C(F)(F)F)nc2)cc1)c1ccc(O[C@H]2C[C@H](Nc3ccc4c(c3)C(=O)N(C3CCC(=O)NC3=O)C4=O)C2)cc1 (some centres unmarked) [Example 264] |
| 101 to 1000 | CC(C)(c1ccc(OCc2ccnc(OC3CCN(C(=O)OCc4ccccc4)CC3)n2)cc1)c1ccc(O[C@H]2C[C@@H](Nc3ccc4c(c3)C(=O)N(C3CCC(=O)NC3=O)C4=O)C2)cc1 (some centres unmarked) [Example 235] |
| 11 to 100 | CC(C)(c1ccc(Oc2ccnc(N3CC4(COC4)C3)n2)cc1)c1ccc(O[C@H]2C[C@@H](Nc3ccc4c(c3)C(=O)N(C3CCC(=O)NC3=O)C4=O)C2)cc1 (some centres unmarked) [Example 459] |
| 101 to 1000 | CC(C)(c1ccc(OCc2ccnc(NC#N)n2)cc1)c1ccc(O[C@H]2C[C@H](Nc3ccc4c(c3)C(=O)N(C3CCC(=O)NC3=O)C4=O)C2)cc1 (some centres unmarked) [Example 245, N-(4-((4-(2-(4-((1s,3s)-3-((2-(2,6-dioxopiperidin-3-yl)-1,3-dioxoisoindolin-5-yl)amino)cyclobutyloxy)phenyl)propan-2-yl)phenoxy)methyl)pyrimidin-2-yl)cyanamide] |
| 11 to 100 | CC(C)(c1ccc(OCc2ccnc(OC3CCOCC3)n2)cc1)c1ccc(O[C@H]2C[C@H](Nc3ccc4c(c3)C(=O)N(C3CCC(=O)NC3=O)C4=O)C2)cc1 (some centres unmarked) [Example 368, 2-(2,6-dioxopiperidin-3-yl)-5-(((1r,3r)-3-(4-(2-(4-((2-((tetrahydro-2H-pyran-4-yl)oxy)pyrimidin-4-yl)methoxy)phenyl)isopropan-2-yl)phenoxy)cyclobutyl)amino)isoindolin-1,3-dione] |

Same assay, conditions: AR-v7 degradation in 22RV1 cells, 48 h, numeric values

| DC50 [nM] | SMILES |
| --- | --- |
| > 10000 | CC(C)(c1ccc(OCCCCCCCCCN2CCN(C3CN(c4ccc5c(c4)C(=O)N(C4CCC(=O)NC4=O)C5=O)C3)CC2)cc1)c1ccc(OCc2ccnc(NS(C)(=O)=O)n2)cc1 (centres unmarked) [Example 5, N-(4-((4-(2-(4-((9-(4-(1-(2-(2,6-dioxopiperidin-3-yl)-1,3-dioxoisoindolin-5-yl)azetidin-3-yl)piperazin-1-yl)nonyl)oxy)phenyl)propan-2-yl)phenoxy)methyl)pyrimidin-2-yl)methanesulfonamide] |
| > 5000 | CC(C)(c1ccc(OCCCCCNc2ccc3c(c2)C(=O)N(C2CCC(=O)NC2=O)C3=O)cc1)c1ccc(OCc2ccnc(NS(C)(=O)=O)n2)cc1 (centres unmarked) [Example 38, N-(4-((4-(2-(4-((5-((2-(2,6-dioxopiperidin-3-yl)-1,3-dioxoisoindolin-5-yl)amino)pentyl)oxy)phenyl)propan-2-yl)phenoxy)methyl)pyrimidin-2-yl)methanesulfonamide] |
| > 5000 | CC(C)(c1ccc(OCc2ccnc(NS(C)(=O)=O)n2)cc1)c1ccc(OC2CN(c3ccc4c(c3)C(=O)N(C3CCC(=O)NC3=O)C4=O)C2)cc1 (centres unmarked) [Example 46, N-(4-((4-(2-(4-((1-(2-(2,6-dioxopiperidin-3-yl)-1,3-dioxoisoindolin-5-yl)azetidin-3-yl)oxy)phenyl)propan-2-yl)phenoxy)methyl)pyrimidin-2-yl)methanesulfonamide] |
| > 10000 | CC(C)(c1ccc(OCc2ccnc(NS(C)(=O)=O)n2)cc1)c1ccc(OC2CCN(c3cccc4c3C(=O)N(C3CCC(=O)NC3=O)C4=O)CC2)cc1 (centres unmarked) [Example 35, N-(4-((4-(2-(4-((1-(2-(2,6-dioxopiperidin-3-yl)-1,3-dioxoisoindolin-4-yl)piperidin-4-yl)oxy)phenyl)propan-2-yl)phenoxy)methyl)pyrimidin-2-yl)methanesulfonamide] |
| > 10000 | CC(C)(c1ccc(OCc2ccnc(NS(C)(=O)=O)n2)cc1)c1ccc(OCC2CCN(CCCOCCCNc3ccc4c(c3)C(=O)N(C3CCC(=O)NC3=O)C4=O)CC2)cc1 (centres unmarked) [Example 40] |
